This passage reports IC50 results from ChEMBL document CHEMBL3727349, “Thieno- and furo - pyrimidines and pyridines, useful as potassium channel inhibitors” (2013).

Each structure is given as a SMILES string.

The test addresses T1, Kir3.1/Kir3.4 (Rattus norvegicus, UniProt P48548+P63251).
T1 sequence (P63251 whole entry): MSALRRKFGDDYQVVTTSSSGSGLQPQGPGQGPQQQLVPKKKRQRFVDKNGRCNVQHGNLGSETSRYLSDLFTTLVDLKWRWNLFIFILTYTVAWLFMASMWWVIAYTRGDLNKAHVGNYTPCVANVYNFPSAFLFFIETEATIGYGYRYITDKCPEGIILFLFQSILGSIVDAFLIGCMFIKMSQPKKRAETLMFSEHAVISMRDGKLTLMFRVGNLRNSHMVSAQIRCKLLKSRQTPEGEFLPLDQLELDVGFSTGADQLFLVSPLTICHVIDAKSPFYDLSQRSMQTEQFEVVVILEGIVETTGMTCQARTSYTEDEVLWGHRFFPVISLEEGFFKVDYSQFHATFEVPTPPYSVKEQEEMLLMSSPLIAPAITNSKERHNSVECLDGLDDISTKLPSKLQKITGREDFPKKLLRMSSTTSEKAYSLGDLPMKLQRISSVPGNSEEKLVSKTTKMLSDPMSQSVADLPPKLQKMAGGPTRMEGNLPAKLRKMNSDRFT
T1 sequence (P48548 whole entry): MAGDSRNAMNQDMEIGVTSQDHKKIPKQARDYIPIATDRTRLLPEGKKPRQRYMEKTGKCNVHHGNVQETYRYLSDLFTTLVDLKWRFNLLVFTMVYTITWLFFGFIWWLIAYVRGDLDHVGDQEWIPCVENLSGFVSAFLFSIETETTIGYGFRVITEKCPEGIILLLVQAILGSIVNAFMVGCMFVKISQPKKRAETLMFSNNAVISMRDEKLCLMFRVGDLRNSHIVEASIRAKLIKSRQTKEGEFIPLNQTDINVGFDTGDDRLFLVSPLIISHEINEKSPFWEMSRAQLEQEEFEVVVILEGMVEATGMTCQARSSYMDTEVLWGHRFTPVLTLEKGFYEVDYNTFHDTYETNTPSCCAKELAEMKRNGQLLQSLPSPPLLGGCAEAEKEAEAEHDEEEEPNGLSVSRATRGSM
As to the kind of experiment: Inhibition of rat Kir3.1/Kir3.4 expressed in HEK293 cells assessed as reduction in depolarizing voltage step-induced recombinant G-protein activated inward rectifier current by whole cell patch clamp assay. Format: cell-based.
One may read the IC50 as the concentration that gives 50% inhibition. Regarding `NC(=O)C1CCN(CCOCC2CCN(c3ncnc4scc(-c5ccccc5)c34)CC2)C1` (configuration not stated), the IC50 was < 500 nM. Take `F[C@H]1CCN(CCOCC2C3CN(c4ncnc5scc(-c6ccccc6)c45)CC23)C1` (some centres not stated): the IC50 was < 500 nM. Then `CN1CCCCC1CCOCC1CCN(c2ncnc3scc(-c4ccccc4)c23)CC1` (configuration not stated), with < 500 nM; and `F[C@H]1CCN(CCOCC2CCN(c3ncnc4scc(-c5ccccc5)c34)CC2)C1`, with < 500 nM. As for `CC(C)c1cc2c(N3CCC(COCCN4CCOCC4)CC3)ncnc2s1`, the IC50 was ≤ 3000 nM. Then `Fc1cccc(-c2csc3ncnc(N4CCC(COCCN5CCCC5)CC4)c23)c1`, with < 500 nM; and `CN1CCCC1CCOCC1C2CN(c3ncnc4scc(-c5ccccc5)c34)CC12` (configuration not stated), with < 500 nM; and `c1ccc(-c2csc3ncnc(N4CCC(COCCN5CC6CC5CO6)CC4)c23)cc1` (configuration not stated), with < 500 nM. Then `NC(=O)[C@H]1CCCN1CCOCC1C2CN(c3ncnc4scc(-c5ccccc5)c34)CC12` (some centres not stated), with < 500 nM; and `NC(=O)C1CCCN1CCOCC1CCN(c2ncnc3scc(-c4ccccc4)c23)CC1` (configuration not stated), with < 500 nM; and `CCc1c(C)sc2ncnc(N3CCC(COCCC4CCCCN4C)CC3)c12` (configuration not stated), with < 500 nM. Then `Cc1sc2ncnc(N3CCC(COCCC4CCCN4C)CC3)c2c1C` (configuration not stated), with < 500 nM; and `CCc1c(C)sc2ncnc(N3CCC(COCCN4CCCC4)CC3)c12`, with < 500 nM; and `CN1CCC(OCC2CCN(c3ncnc4scc(-c5ccccc5)c34)CC2)CC1`, with < 500 nM. Turning to `FC1(F)CCN(CCOCC2CCN(c3ncnc4scc(-c5ccccc5)c34)CC2)C1`, the IC50 is < 500 nM. Under `COc1ncccc1-c1csc2ncnc(N3CCC(COCCN4CCCC4)CC3)c12` stands < 500 nM. Regarding `CC(=O)NC1CCN(CCOCC2CCN(c3ncnc4scc(-c5ccccc5)c34)CC2)C1` (configuration not stated), the half-inhibitory concentration (IC50) is < 500 nM. For the compound `Fc1ccc(-c2csc3ncnc(N4CCC(COCCN5CCCC5)CC4)c23)cc1`, the IC50 is < 500 nM.

Take `F[C@@H]1CCN(CCOCC2C3CN(c4ncnc5scc(-c6ccccc6)c45)CC23)C1` (some centres not stated): the IC50 is < 500 nM. Under `CN(C)CCCOCC1CCN(c2ncnc3scc(-c4ccccc4)c23)CC1` stands < 500 nM; under `NC(=O)[C@@H]1CCCN1CCOCC1C2CN(c3ncnc4scc(-c5ccccc5)c34)CC12` (some centres not stated), < 500 nM; under `CN1CCCC1CCOCC1CCN(c2ncnc3scc(-c4cccc(F)c4)c23)CC1` (configuration not stated), < 500 nM.

In the case of `c1ccc(-c2csc3ncnc(N4CC5C(COCCN6CCCC6)C5C4)c23)cc1` (configuration not stated), the IC50 is < 500 nM. Under `CN1CCCC1CCOCC1CCN(c2ncnc3scc(-c4ccccc4)c23)CC1` (configuration not stated) stands < 500 nM.

In the case of `c1ccc(-c2csc3ncnc(N4CCC(COCCN5CCOCC5)CC4)c23)cc1`, the IC50 was < 500 nM. `CN1CCC(OCC2CCN(c3ncnc4scc(-c5ccccc5)c34)CC2)C1` (configuration not stated): the half-inhibitory concentration (IC50) was < 500 nM. Under `CN(C)CCOCC1CCN(c2ncnc3scc(-c4ccccc4)c23)CC1` stands < 500 nM.
